Results reported in PubChem BioAssay (NCI).
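1) Cells in 96-well plates. 2) Compound, 48 h, 5 concentrations. 3) Linear interpolation between surrounding doses. 4) Unreached endpoint = highest concentration. The concentration for full growth arrest is given as TGI.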

Key:
Experiment in all cases: NCI-60 cell line screen, 48 h
[1] = tested on: OVCAR-4 ovarian
[2] = tested on: NCI-H460 lung
[3] = tested on: HS 578T breast
[4] = tested on: HOP-62 NSCLC
[5] = tested on: MDA-N
[6] = tested on: RPMI-8226 leukemia
[7] = tested on: MCF7 breast
[8] = tested on: SN12C renal
[9] = tested on: OVCAR-8 ovarian
[10] = tested on: IGROV1 ovarian
[11] = tested on: CAKI-1 renal
[12] = tested on: KM12 colon
[13] = tested on: SK-OV-3 ovarian
[14] = tested on: PC-3 prostate
[15] = tested on: SNB-75 CNS
[16] = tested on: HCT-116 colon
[17] = tested on: T-47D breast
[18] = tested on: UACC-62 melanoma
[19] = tested on: TK-10 renal
[20] = tested on: ACHN renal
[21] = tested on: HCC-2998 colon
[22] = tested on: BT-549 breast
[23] = tested on: LOX IMVI melanoma
[24] = tested on: HCT-15 colon
[25] = tested on: COLO 205 colon
[26] = tested on: UO-31 renal
[27] = tested on: NCI-H522 lung
[28] = tested on: CCRF-CEM leukemia
[29] = tested on: HT29 colon
[30] = tested on: OVCAR-3 ovarian
[31] = tested on: UACC-257 melanoma
[32] = tested on: SK-MEL-5 melanoma
[33] = tested on: HL-60(TB) leukemia
[34] = tested on: MALME-3M melanoma
[35] = tested on: HOP-92 NSCLC
[36] = tested on: SW-620 colon
[37] = tested on: U251 CNS
[38] = tested on: NCI-H23 lung
[39] = tested on: 786-0 renal
[40] = tested on: OVCAR-5 ovarian
[41] = tested on: SF-268 CNS
[42] = tested on: SK-MEL-2 melanoma
[43] = tested on: EKVX NSCLC
[44] = tested on: MDA-MB-435
[45] = tested on: M14 melanoma
[46] = tested on: A549 NSCLC
[47] = tested on: K-562 leukemia
[48] = tested on: MOLT-4 leukemia
[49] = tested on: SF-295 CNS
[50] = tested on: DU-145 prostate
[51] = tested on: SK-MEL-28 melanoma
[52] = tested on: SNB-19 CNS
[53] = tested on: SR leukemia
[54] = tested on: SF-539 CNS
[55] = tested on: NCI/ADR-RES ovarian
[56] = tested on: RXF 393 renal
[57] = tested on: A498 renal
[58] = tested on: MDA-MB-231 breast
[59] = tested on: NCI-H226 lung

Structure (SMILES): CCN(CC)CCC(=O)Nc1ccc2sc3ccccc3c(=O)c2n1
- TGI [1]: > 100 µM
- TGI [2]: 61.6 µM
- TGI [3]: 46.1 µM
- TGI [4]: 37.8 µM
- TGI [5]: 30.3 µM
- TGI [6]: 43.5 µM
- TGI [7]: 36.5 µM
- TGI [8]: 77.8 µM
- TGI [9]: 62.4 µM
- TGI [10]: 35.8 µM
- TGI [11]: 28.8 µM
- TGI [12]: 32.1 µM
- TGI [13]: 36.7 µM
- TGI [14]: 40.9 µM
- TGI [15]: 21.6 µM
- TGI [16]: 29.4 µM
- TGI [17]: 45.9 µM
- TGI [18]: 35 µM
- TGI [19]: 57.5 µM
- TGI [20]: 38.1 µM
- TGI [21]: 42.7 µM
- TGI [22]: 36.1 µM
- TGI [23]: 38.9 µM
- TGI [24]: 62.3 µM
- TGI [25]: 29.1 µM
- TGI [26]: 22.2 µM
- TGI [27]: 30.4 µM
- TGI [28]: 75.6 µM
- TGI [29]: > 100 µM
- TGI [30]: 43.2 µM
- TGI [31]: 37.5 µM
- TGI [32]: 33.8 µM
- TGI [33]: 30.9 µM
- TGI [34]: 39.1 µM
- TGI [35]: 0.0992 µM
- TGI [36]: 33.9 µM
- TGI [37]: 28.8 µM
- TGI [38]: 43.8 µM
- TGI [39]: 35.1 µM
- TGI [40]: 42.5 µM
- TGI [41]: 48.5 µM
- TGI [42]: 45.8 µM
- TGI [43]: > 100 µM
- TGI [44]: 26.4 µM
- TGI [45]: 28.1 µM
- TGI [46]: 37 µM
- TGI [47]: 41.4 µM
- TGI [48]: > 100 µM
- TGI [49]: 48.9 µM
- TGI [50]: > 100 µM
- TGI [51]: 33.6 µM
- TGI [52]: 53.1 µM
- TGI [53]: > 100 µM
- TGI [54]: 33.4 µM
- TGI [55]: 72 µM

Structure (SMILES): O=c1[nH]nc(-c2ccccc2)n1-n1cccc1
- TGI [1]: > 100 µM
- TGI [2]: > 100 µM
- TGI [3]: > 100 µM
- TGI [4]: > 100 µM
- TGI [5]: > 100 µM
- TGI [6]: > 100 µM
- TGI [7]: > 100 µM
- TGI [8]: > 100 µM
- TGI [9]: > 100 µM
- TGI [10]: > 100 µM
- TGI [11]: > 100 µM
- TGI [12]: > 100 µM
- TGI [13]: > 100 µM
- TGI [14]: > 100 µM
- TGI [15]: > 100 µM
- TGI [16]: > 100 µM
- TGI [17]: > 100 µM
- TGI [18]: > 100 µM
- TGI [56]: > 100 µM
- TGI [19]: > 100 µM
- TGI [57]: > 100 µM
- TGI [20]: > 100 µM
- TGI [21]: > 100 µM
- TGI [22]: > 100 µM
- TGI [23]: > 100 µM
- TGI [24]: > 100 µM
- TGI [25]: > 100 µM
- TGI [26]: > 100 µM
- TGI [27]: > 100 µM
- TGI [28]: > 100 µM
- TGI [29]: > 100 µM
- TGI [30]: > 100 µM
- TGI [31]: > 100 µM
- TGI [32]: > 100 µM
- TGI [58]: > 100 µM
- TGI [34]: > 100 µM
- TGI [36]: > 100 µM
- TGI [37]: > 100 µM
- TGI [39]: > 100 µM
- TGI [40]: > 100 µM
- TGI [41]: > 100 µM
- TGI [42]: > 100 µM
- TGI [59]: > 100 µM
- TGI [43]: > 100 µM
- TGI [44]: > 100 µM
- TGI [45]: > 100 µM
- TGI [46]: > 100 µM
- TGI [47]: > 100 µM
- TGI [48]: > 100 µM
- TGI [49]: > 100 µM
- TGI [50]: > 100 µM
- TGI [51]: > 100 µM
- TGI [52]: > 100 µM
- TGI [53]: 97 µM
- TGI [55]: > 100 µM
